Measurements reported in ChEMBL document CHEMBL4680113, “Tigliane Diterpenoids as a New Type of Antiadipogenic Agents Inhibit GRα-Dexras1 Axis in Adipocytes” (J Med Chem, 2019).
Activity calls are given as the source filed them. The calls are words filed in the database; no cut-off is given here.

Tests used:
3T3-L1 [1] = test: Inhibition of adipogenic cocktail-induced GR-alpha nuclear translocation in mouse 3T3-L1 cells at 1 uM after 8 hrs by immunofluorescence assay; assay type: cell-based
3T3-L1 [2] = test: Inhibition of cell differentiation in mouse 3T3-L1 cells assessed as reduction in adipogenic cocktail-induced triglyceride levels at 1 uM incubated for 0 to 3 days by GPO-POD assay; assay type: functional, cell-based; conditions: time 0-3 day
3T3-L1 [3] = test: Inhibition of cell differentiation in mouse 3T3-L1 cells assessed as reduction in adipogenic cocktail-induced triglyceride levels at 1 uM incubated for 0 to 3 days by Oil-Red O staining; assay type: functional, cell-based; conditions: time 0-3 day
3T3-L1 [4] = test: Inhibition of adipogenic cocktail-induced ACC mRNA expression in mouse 3T3-L1 cells at 1 uM after 6 days in presence of GR-alpha siRNA by RT-qPCR analysis; assay type: functional, cell-based; conditions: time 6.0 day
[5] = Toxicity in mouse 3T3-L1 cells assessed as reduction in cell viability incubated for 6 days by MTT assay; assay type: cell-based
3T3-L1 [6] = test: Toxicity in mouse 3T3-L1 cells assessed as reduction in cell viability at 10 uM incubated for 6 days by LDH release assay; assay type: cell-based; conditions: 3t3-l1, 144 h, time 6 day
3T3-L1 [7] = test: Inhibition of cell differentiation in mouse 3T3-L1 cells assessed as reduction in adipogenic cocktail-induced triglyceride levels at 1 uM incubated for 0 to 9 days by GPO-POD assay; assay type: functional, cell-based; conditions: time 0-9 day
3T3-L1 [8] = test: Inhibition of adipogenic cocktail-induced PPARgamma mRNA expression in mouse 3T3-L1 cells at 1 uM after 1 day in presence of GR-alpha siRNA by RT-qPCR analysis; assay type: functional, cell-based
3T3-L1 [9] = test: Inhibition of adipogenic cocktail-induced C/EBPdelta mRNA expression in mouse 3T3-L1 cells incubated for 24 hrs by RT-qPCR analysis; assay type: functional, cell-based
3T3-L1 [10] = test: Inhibition of adipogenic cocktail-induced C/EBPalpha protein expression in mouse 3T3-L1 cells incubated for 24 hrs by Western blot analysis; assay type: functional, cell-based
3T3-L1 [11] = test: Inhibition of adipogenic cocktail-induced SCD1 protein expression in mouse 3T3-L1 cells incubated for 6 days by Western blot analysis; assay type: functional, cell-based; conditions: time 6.0 day
3T3-L1 [12] = test: Lipid lowering activity in mouse 3T3-L1 cells assessed as reduction in adipogenic cocktail induced triglyceride levels at 1 uM incubated for 6 days in presence of GR-alpha siRNA by GPO-POD assay; assay type: functional, cell-based; conditions: time 6.0 day
3T3-L1 [13] = test: Inhibition of cell differentiation in mouse 3T3-L1 cells assessed as reduction in adipogenic cocktail-induced triglyceride levels at 1 uM incubated for 0 to 6 days by Oil-Red O staining; assay type: functional, cell-based; conditions: time 0-6 day
3T3-L1 [14] = test: Inhibition of adipogenic cocktail-induced GR-beta nuclear translocation in mouse 3T3-L1 cells at 1 uM after 8 hrs by immunofluorescence assay; assay type: cell-based
3T3-L1 [15] = test: Inhibition of adipogenic cocktail-induced SCD1 mRNA expression in mouse 3T3-L1 cells incubated for 6 days by RT-qPCR analysis; assay type: functional, cell-based; conditions: time 6.0 day
3T3-L1 [16] = test: Inhibition of adipogenic cocktail-induced C/EBP-beta mRNA expression in mouse 3T3-L1 cells at 1 to 10 uM incubated for 0.5 hrs by RT-qPCR analysis; assay type: functional, cell-based; conditions: dose 1-10 µM
3T3-L1 [17] = test: Inhibition of GR-alpha in mouse 3T3-L1 cells assessed as reduction in adipogenic cocktail-induced Dexras1 protein expression incubated for 0.5 to 24 hrs by Western blot analysis; assay type: cell-based; conditions: time 0.5-24 hrs
3T3-L1 [18] = test: Inhibition of adipogenic cocktail-induced GR-alpha nuclear translocation in mouse 3T3-L1 cells at 1 uM after 8 hrs by Western blot analysis; assay type: cell-based
3T3-L1 [19] = test: Inhibition of cell differentiation in mouse 3T3-L1 cells assessed as reduction in adipogenic cocktail-induced triglyceride levels at 1 uM incubated for 0 to 6 days by GPO-POD assay; assay type: functional, cell-based; conditions: time 0-6 day
3T3-L1 [20] = test: Inhibition of GR-alpha in mouse 3T3-L1 cells assessed as reduction in GR-alpha interaction with PPAR-gamma at 1 uM incubated for 8 hrs by ChIP assay; assay type: cell-based
3T3-L1 [21] = test: Inhibition of adipogenic cocktail-induced C/EBPbeta mRNA expression in mouse 3T3-L1 cells incubated for 24 hrs by RT-qPCR analysis; assay type: functional, cell-based
3T3-L1 [22] = test: Inhibition of adipogenic cocktail-induced GR-beta nuclear translocation in mouse 3T3-L1 cells at 1 uM after 8 hrs by Western blot analysis; assay type: cell-based
3T3-L1 [23] = test: Inhibition of adipogenic cocktail-induced PPARgamma protein expression in mouse 3T3-L1 cells incubated for 24 hrs by Western blot analysis; assay type: functional, cell-based
3T3-L1 [24] = test: Inhibition of adipogenic cocktail-induced FAS mRNA expression in mouse 3T3-L1 cells at 1 uM after 6 days in presence of GR-alpha siRNA by RT-qPCR analysis; assay type: functional, cell-based; conditions: time 6.0 day
3T3-L1 [25] = test: Inhibition of adipogenic cocktail-induced C/EBPbeta protein expression in mouse 3T3-L1 cells incubated for 24 hrs by Western blot analysis; assay type: functional, cell-based
3T3-L1 [26] = test: Inhibition of adipogenic cocktail-induced PPARgamma mRNA expression in mouse 3T3-L1 cells incubated for 24 hrs by RT-qPCR analysis; assay type: functional, cell-based
3T3-L1 [27] = test: Inhibition of cell differentiation in mouse 3T3-L1 cells assessed as reduction in adipogenic cocktail-induced triglyceride levels at 1 uM incubated for 0 to 9 days by Oil-Red O staining; assay type: functional, cell-based; conditions: time 0-9 day
3T3-L1 [28] = test: Inhibition of GR-alpha in mouse 3T3-L1 cells assessed as reduction in adipogenic cocktail-induced Dexras1 mRNA expression incubated for 0.5 to 24 hrs by RT-qPCR analysis; assay type: cell-based; conditions: time 0.5-24 hrs
3T3-L1 [29] = test: Lipid lowering activity in mouse 3T3-L1 cells assessed as reduction in adipogenic cocktail-induced triglyceride levels at 1 uM incubated for 6 days by GPO-POD assay; assay type: functional, cell-based; conditions: time 6.0 day
3T3-L1 [30] = test: Inhibition of adipogenic cocktail-induced ACC protein expression in mouse 3T3-L1 cells incubated for 6 days by Western blot analysis; assay type: functional, cell-based; conditions: time 6.0 day
3T3-L1 [31] = test: Inhibition of adipogenic cocktail-induced C/EBP-delta mRNA expression in mouse 3T3-L1 cells at 1 to 10 uM incubated for 0.5 hrs by RT-qPCR analysis; assay type: functional, cell-based; conditions: dose 1-10 µM
3T3-L1 [32] = test: Inhibition of adipogenic cocktail-induced C/EBPdelta protein expression in mouse 3T3-L1 cells incubated for 24 hrs by Western blot analysis; assay type: functional, cell-based
3T3-L1 [33] = test: Lipid lowering activity in mouse 3T3-L1 cells assessed as reduction in adipogenic cocktail-induced triglyceride levels at 1 to 10 uM by Oil-Red O staining; assay type: functional, cell-based; conditions: dose 1-10 µM
3T3-L1 [34] = test: Inhibition of adipogenic cocktail-induced GR-alpha protein expression in mouse 3T3-L1 cells at 1 to 10 uM incubated for 4 to 24 hrs by Western blot analysis; assay type: functional, cell-based; conditions: dose 1-10 µM, time 4-24 hrs
3T3-L1 [35] = test: Inhibition of adipogenic cocktail-induced GR-beta protein expression in mouse 3T3-L1 cells at 1 to 10 uM incubated for 4 to 24 hrs by Western blot analysis; assay type: functional, cell-based; conditions: dose 1-10 µM, time 4-24 hrs
HepG2 = test: Lipid lowering activity in human HepG2 cells assessed as reduction in high-glucose induced triglyceride levels at 1 uM incubated for 24 hrs by GPO-POD assay; assay type: functional, cell-based
HEK293 = test: Toxicity in HEK293 cells assessed as reduction in cell viability at 10 uM incubated for 6 days by MTT assay; assay type: cell-based; conditions: human, hek293, 144 h, time 6 day
3T3-L1 [36] = test: Lipid lowering activity in mouse 3T3-L1 cells assessed as reduction in adipogenic cocktail-induced triglyceride levels at 10 uM incubated for 6 days by GPO-POD assay; assay type: functional; conditions: 3T3-L1, 144 h, time 6 day

| Structure (SMILES) | inhibition (3T3-L1 [1]) | inhibition (3T3-L1 [2]) | inhibition (3T3-L1 [3]) | inhibition (3T3-L1 [4]) | IC50 at 6 days [5] [µM] | Activity (3T3-L1 [6]) | inhibition (3T3-L1 [7]) | inhibition (3T3-L1 [8]) | inhibition (3T3-L1 [9]) | inhibition (3T3-L1 [10]) | inhibition (3T3-L1 [11]) | inhibition (3T3-L1 [12]) | inhibition (3T3-L1 [13]) | inhibition (3T3-L1 [14]) | inhibition (3T3-L1 [15]) | inhibition (3T3-L1 [16]) | inhibition (3T3-L1 [17]) | inhibition (3T3-L1 [18]) | inhibition (3T3-L1 [19]) | inhibition (3T3-L1 [20]) | further results |
| --- | --- | --- | --- | --- | --- | --- | --- | --- | --- | --- | --- | --- | --- | --- | --- | --- | --- | --- | --- | --- | --- |
| CC1=C[C@@H]2[C@@H](C1=O)[C@H](O)C(C)=C[C@H]1[C@@H]3C(C)(C)[C@]3(OC(=O)C(C)C)[C@H](OC(=O)c3ccccc3)[C@@H](C)[C@]21O | Active | Active | Active | Active | 17.2 | Non-Toxic | inactive | Active | Dose-dependent effect | Dose-dependent effect | Dose-dependent effect | Active | inactive | inactive | Dose-dependent effect | inactive | Dose-dependent effect | Active | inactive | Active | inhibition (3T3-L1 [21]): Dose-dependent effect; inhibition (3T3-L1 [22]): inactive; inhibition (3T3-L1 [23]): Dose-dependent effect; inhibition (3T3-L1 [24]): Active; inhibition (3T3-L1 [25]): Dose-dependent effect; inhibition (3T3-L1 [26]): Dose-dependent effect; inhibition (3T3-L1 [27]): inactive; inhibition (3T3-L1 [28]): Dose-dependent effect; inhibition (3T3-L1 [29]): Active; inhibition (3T3-L1 [30]): Dose-dependent effect; inhibition (3T3-L1 [31]): inactive; inhibition (3T3-L1 [32]): Dose-dependent effect; inhibition (3T3-L1 [33]): Active; inhibition (3T3-L1 [34]): inactive; inhibition (3T3-L1 [35]): inactive; inhibition (HepG2): Active; Activity (HEK293): Non-Toxic; inhibition at 10 µM (3T3-L1 [36]): > 50% |
| CC(=O)O[C@@H]1C(C)=C[C@H]2[C@@H]3C(C)(C)[C@]3(OC(=O)C(C)C)[C@H](OC(=O)c3ccccc3)[C@@H](C)[C@]2(O)[C@@H]2C=C(C)C(=O)[C@@H]12 | Active | Active | Active | Active | > 100 | Non-Toxic | inactive | Active | Dose-dependent effect | Dose-dependent effect | Dose-dependent effect | Active | inactive | inactive | Dose-dependent effect | inactive | Dose-dependent effect | Active | inactive | Active | inhibition (3T3-L1 [21]): Dose-dependent effect; inhibition (3T3-L1 [22]): inactive; inhibition (3T3-L1 [23]): Dose-dependent effect; inhibition (3T3-L1 [24]): Active; inhibition (3T3-L1 [25]): Dose-dependent effect; inhibition (3T3-L1 [26]): Dose-dependent effect; inhibition (3T3-L1 [27]): inactive; inhibition (3T3-L1 [28]): Dose-dependent effect; inhibition (3T3-L1 [29]): Active; inhibition (3T3-L1 [30]): Dose-dependent effect; inhibition (3T3-L1 [31]): inactive; inhibition (3T3-L1 [32]): Dose-dependent effect; inhibition (3T3-L1 [33]): Active; inhibition (3T3-L1 [34]): inactive; inhibition (3T3-L1 [35]): inactive; inhibition (HepG2): Active; Activity (HEK293): Non-Toxic; inhibition at 10 µM (3T3-L1 [36]): > 50% |
